According to PMC6193938, “Characterization of a novel AICARFT inhibitor which potently elevates ZMP and has anti-tumor activity in murine models” (Scientific Reports, 2018):
Where two headings read alike, the source gives them in different places.

What was measured:
EGFR = molecular target: T1, EGFR (Homo sapiens, UniProt P00533); assay: CEREP protein kinase assay; format: biochemical
T1 construct: purchased CEREP Panlabs (Eurofins)

MDA-MB-231met2 = assay: In vitro proliferation assay (Alamar Blue); format: cell-based, human
Procedure: Cells lines were acquired from cell banks, see supplemental material, grown using the cell banks recommended culture conditions (Supplemental Table 3). In some experiments noted “low folate” the cells were washed and grown in folate free RPMI-1640 media (Gibco #27016-021) supplemented with 5 ml 1 M Hepes, 5 ml 100 mM Na pyruvate, 2.5 mg/ml glucose and 10% defined FBS (Hyclone #SH30070) per 500 mL media for 5–7 days to deplete intracellular folate levels prior to the start of the experiment. Where noted, cells were maintained in complete “high folate” RPMI-1640 media (ATCC #30-2001) with 10% defined FBS to contrast with the low folate conditions. […]
(§1) Cells were cultured using recommended culture conditions unless noted otherwise (Supplemental Table 3). Cells were plated, dosed with compound and incubated at 37 °C for approximately 2 doubling times as determined for each cell line. Cell Titer Glo (Promega) assay was used to measure proliferation according to manufacturer’s recommendations by measuring luminescence with Flexstation3 (Molecular Devices) with 500 ms integration time. […]
(§2) For a limited number of cell lines, compound dosing was performed under high or low folate conditions with cell viability being determined with Alamar Blue rather than an ATP dependent assay. […] The % inhibition for each sample was calculated and fit as described above.

A101D (melenoma) = assay: MS detection of ZMP in cultured cells; format: cell-based; settings: Homo sapiens, low folate RPMI media, 16 hours
Procedure: (§3) Cells lines were acquired from cell banks, see supplemental material, grown using the cell banks recommended culture conditions (Supplemental Table 3). In some experiments noted “low folate” the cells were washed and grown in folate free RPMI-1640 media (Gibco #27016-021) supplemented with 5 ml 1 M Hepes, 5 ml 100 mM Na pyruvate, 2.5 mg/ml glucose and 10% defined FBS (Hyclone #SH30070) per 500 mL media for 5–7 days to deplete intracellular folate levels prior to the start of the experiment. Where noted, cells were maintained in complete “high folate” RPMI-1640 media (ATCC #30-2001) with 10% defined FBS to contrast with the low folate conditions.
(§4) ZMP was detected in cultured cells via mass spec analysis. Cells were plated in 96-well plates at 25,000 cells per well in 100 µL with either high or low folate RPMI media and incubated overnight at 37 °C with 5% CO2. Cells were treated with inhibitor compounds for 16 hours, 0.5% DMSO final concentration. Growth media was decanted and cells were lysed for 10 min at room temperature with 50 µL per well of 1x Sure Fire Lysis buffer (Perkin Elmer, SureFire kit component). Aliquots (40 µL) of standard or sample were combined in a deep 96-well plate with 160 µL of internal standard solution containing ^13C5-ZMP (custom synthesis) and ^13C5-AICAr (custom synthesis) at 100 ng/mL in 40 mM ammonium acetate, pH 4. 400 µL of dichloromethane was added to each sample. Samples were sealed, vortexed for 5 minutes, and placed in the refrigerator for at least 30 minutes. The samples were centrifuged at 4 °C for 10 minutes at 16,600 g. 75 µL of the aqueous layer were transferred to a clean 96-well plate and seal prior to analysis.
(§5) The LC-MS method utilizes a Shimadzu Prominence 20 A HPLC system connected to an AB Sciex 5500™ or an AB Sciex 6500™ triple quadrupole mass spectrometer. Extracted samples were separated using a Thermo Hypercarb™ Javelin guard column (2.1 × 20 mm, 5 µm) with an injection volume of 15 µL and a flow rate of 1 mL/minute.
(§6) ZMP, AICAr and dUMP were detected using positive ion TurboIonSpray® multiple reaction monitoring mode and the data were processed with AB Sciex MultiQuant™. Back-calculated ZMP concentrations were fit to a four-parameter logistic equation using ACTIVITYBASE 4.0 to determine EC50 values relative to the maximum observed metabolite levels.

SNU-16 (gastric) = assay: MS detection of ZMP in cultured cells; format: cell-based; settings: Homo sapiens, 16 hours
Procedure: as §3, §4, §5, §6

A549 (lung) = assay: MS detection of ZMP in cultured cells; format: cell-based; settings: Homo sapiens, 16 hours
Procedure: as §3, §4, §5, §6

SIK = molecular target: T2, SIK (Homo sapiens, UniProt P57059); assay: CEREP protein kinase assay; format: biochemical
T2 construct: purchased CEREP Panlabs (Eurofins)
T2 sequence (P57059 whole entry): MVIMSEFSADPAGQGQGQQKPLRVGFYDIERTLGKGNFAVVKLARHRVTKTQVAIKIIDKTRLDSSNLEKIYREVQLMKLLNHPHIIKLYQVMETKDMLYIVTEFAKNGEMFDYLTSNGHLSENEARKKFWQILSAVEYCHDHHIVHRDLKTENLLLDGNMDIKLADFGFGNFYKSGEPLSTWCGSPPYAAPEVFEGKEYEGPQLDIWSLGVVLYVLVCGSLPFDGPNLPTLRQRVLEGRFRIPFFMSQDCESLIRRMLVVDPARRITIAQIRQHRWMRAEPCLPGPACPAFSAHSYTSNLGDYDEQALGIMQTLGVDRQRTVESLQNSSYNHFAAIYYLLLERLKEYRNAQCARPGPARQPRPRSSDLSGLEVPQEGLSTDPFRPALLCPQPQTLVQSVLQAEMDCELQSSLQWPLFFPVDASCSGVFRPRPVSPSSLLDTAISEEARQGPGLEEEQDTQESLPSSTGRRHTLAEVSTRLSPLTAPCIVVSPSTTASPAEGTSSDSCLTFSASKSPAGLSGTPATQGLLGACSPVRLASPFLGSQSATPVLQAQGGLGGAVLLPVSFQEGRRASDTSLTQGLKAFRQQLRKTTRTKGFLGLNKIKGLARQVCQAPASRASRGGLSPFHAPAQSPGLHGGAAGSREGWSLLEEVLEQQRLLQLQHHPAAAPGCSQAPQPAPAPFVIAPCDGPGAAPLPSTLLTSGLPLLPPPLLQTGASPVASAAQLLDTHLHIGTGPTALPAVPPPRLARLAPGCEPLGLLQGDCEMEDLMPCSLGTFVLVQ

TYK2 = molecular target: T3, TYK2 (Homo sapiens, UniProt P29597); assay: CEREP protein kinase assay; format: biochemical
T3 construct: purchased CEREP Panlabs (Eurofins)
T3 sequence (P29597 whole entry): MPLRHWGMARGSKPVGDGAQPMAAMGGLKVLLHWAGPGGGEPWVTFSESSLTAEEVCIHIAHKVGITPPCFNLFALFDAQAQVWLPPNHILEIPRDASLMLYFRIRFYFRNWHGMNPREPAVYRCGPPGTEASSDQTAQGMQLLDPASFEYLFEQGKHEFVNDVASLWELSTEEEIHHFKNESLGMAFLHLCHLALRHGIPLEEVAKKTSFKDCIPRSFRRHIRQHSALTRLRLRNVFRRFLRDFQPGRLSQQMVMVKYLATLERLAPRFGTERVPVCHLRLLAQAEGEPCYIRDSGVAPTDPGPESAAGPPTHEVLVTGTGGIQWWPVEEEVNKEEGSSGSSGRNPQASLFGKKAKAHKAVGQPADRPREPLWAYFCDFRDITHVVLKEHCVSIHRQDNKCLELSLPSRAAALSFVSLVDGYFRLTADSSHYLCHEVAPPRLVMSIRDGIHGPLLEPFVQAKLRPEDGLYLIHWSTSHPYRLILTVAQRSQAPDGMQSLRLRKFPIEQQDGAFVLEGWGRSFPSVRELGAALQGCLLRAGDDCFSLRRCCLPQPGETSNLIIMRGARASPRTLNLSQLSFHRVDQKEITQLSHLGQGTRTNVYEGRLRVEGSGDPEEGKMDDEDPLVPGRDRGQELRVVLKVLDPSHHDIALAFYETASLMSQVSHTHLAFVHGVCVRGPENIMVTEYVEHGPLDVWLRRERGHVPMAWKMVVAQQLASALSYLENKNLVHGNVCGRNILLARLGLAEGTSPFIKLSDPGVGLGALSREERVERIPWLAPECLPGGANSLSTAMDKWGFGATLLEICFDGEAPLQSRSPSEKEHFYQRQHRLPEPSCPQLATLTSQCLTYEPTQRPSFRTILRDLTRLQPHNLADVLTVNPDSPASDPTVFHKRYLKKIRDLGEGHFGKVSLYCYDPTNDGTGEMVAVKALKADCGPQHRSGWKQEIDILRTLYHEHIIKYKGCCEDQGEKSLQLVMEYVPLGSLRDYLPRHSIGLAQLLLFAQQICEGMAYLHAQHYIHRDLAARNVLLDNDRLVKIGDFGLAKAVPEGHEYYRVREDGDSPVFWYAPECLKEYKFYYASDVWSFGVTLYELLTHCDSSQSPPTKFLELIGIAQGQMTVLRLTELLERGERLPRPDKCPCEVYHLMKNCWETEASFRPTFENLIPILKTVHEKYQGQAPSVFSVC

cell lines of Table 1 = assay: Alamar Blue proliferation assay, average over cell lines; format: cell-based; settings: Homo sapiens
Procedure: as §3, §1, §2

EPHA5 = molecular target: T4, EPHA5 (Homo sapiens, UniProt P54756); assay: CEREP protein kinase assay; format: biochemical
T4 construct: purchased CEREP Panlabs (Eurofins)
T4 sequence (P54756 25-1037): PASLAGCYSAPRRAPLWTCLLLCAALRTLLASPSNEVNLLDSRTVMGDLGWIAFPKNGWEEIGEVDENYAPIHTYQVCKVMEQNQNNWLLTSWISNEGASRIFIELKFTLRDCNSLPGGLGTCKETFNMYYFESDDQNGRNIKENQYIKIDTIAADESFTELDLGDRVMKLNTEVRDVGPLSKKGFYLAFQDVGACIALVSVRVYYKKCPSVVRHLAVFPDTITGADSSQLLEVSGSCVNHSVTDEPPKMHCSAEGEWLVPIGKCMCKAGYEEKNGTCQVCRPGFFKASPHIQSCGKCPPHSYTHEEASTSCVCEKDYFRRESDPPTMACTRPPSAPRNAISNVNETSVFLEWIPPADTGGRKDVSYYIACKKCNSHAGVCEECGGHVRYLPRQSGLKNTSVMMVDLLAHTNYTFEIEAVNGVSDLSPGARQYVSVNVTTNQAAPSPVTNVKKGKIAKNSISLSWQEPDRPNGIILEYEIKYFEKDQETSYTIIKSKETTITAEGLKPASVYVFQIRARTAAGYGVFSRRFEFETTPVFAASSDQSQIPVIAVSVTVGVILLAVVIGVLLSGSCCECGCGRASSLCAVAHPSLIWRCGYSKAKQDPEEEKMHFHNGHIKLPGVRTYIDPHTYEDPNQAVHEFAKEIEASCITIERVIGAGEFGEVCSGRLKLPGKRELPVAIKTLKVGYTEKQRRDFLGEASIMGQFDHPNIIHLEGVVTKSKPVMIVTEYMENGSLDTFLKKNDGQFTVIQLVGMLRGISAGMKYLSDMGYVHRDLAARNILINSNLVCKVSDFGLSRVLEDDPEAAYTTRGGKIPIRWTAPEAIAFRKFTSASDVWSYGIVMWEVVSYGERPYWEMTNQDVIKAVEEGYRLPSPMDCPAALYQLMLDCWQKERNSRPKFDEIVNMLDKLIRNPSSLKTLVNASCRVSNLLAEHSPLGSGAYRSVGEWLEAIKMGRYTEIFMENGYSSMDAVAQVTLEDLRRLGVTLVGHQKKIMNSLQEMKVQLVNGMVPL

TNK1 = molecular target: T5, TNK1 (Homo sapiens, UniProt Q13470); assay: CEREP protein kinase assay; format: biochemical
T5 construct: purchased CEREP Panlabs (Eurofins)
T5 sequence (Q13470 1-666): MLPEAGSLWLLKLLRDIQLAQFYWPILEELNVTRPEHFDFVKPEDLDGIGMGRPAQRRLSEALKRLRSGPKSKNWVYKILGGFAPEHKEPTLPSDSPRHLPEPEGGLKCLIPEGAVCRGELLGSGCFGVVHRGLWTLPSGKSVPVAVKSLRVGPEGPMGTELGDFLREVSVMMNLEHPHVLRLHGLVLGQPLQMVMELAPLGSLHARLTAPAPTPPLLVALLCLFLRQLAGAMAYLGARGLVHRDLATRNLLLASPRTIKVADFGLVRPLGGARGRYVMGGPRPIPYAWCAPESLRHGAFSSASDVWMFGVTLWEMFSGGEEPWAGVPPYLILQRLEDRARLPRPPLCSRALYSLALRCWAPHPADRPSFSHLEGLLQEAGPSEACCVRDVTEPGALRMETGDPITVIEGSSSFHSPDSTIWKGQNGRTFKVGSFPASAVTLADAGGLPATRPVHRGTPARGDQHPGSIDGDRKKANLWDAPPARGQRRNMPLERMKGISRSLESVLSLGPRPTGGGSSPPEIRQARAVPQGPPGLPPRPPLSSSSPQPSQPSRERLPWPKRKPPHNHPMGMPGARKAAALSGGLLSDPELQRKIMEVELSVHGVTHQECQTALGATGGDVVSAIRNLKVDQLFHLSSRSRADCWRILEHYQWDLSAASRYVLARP

[1] = RPMI media, read-out: ZMP EC50 Regular folate
[2] = low folate RPMI media, read-out: ZMP EC50 Low folate

T1 sequence (P00533 25-1210): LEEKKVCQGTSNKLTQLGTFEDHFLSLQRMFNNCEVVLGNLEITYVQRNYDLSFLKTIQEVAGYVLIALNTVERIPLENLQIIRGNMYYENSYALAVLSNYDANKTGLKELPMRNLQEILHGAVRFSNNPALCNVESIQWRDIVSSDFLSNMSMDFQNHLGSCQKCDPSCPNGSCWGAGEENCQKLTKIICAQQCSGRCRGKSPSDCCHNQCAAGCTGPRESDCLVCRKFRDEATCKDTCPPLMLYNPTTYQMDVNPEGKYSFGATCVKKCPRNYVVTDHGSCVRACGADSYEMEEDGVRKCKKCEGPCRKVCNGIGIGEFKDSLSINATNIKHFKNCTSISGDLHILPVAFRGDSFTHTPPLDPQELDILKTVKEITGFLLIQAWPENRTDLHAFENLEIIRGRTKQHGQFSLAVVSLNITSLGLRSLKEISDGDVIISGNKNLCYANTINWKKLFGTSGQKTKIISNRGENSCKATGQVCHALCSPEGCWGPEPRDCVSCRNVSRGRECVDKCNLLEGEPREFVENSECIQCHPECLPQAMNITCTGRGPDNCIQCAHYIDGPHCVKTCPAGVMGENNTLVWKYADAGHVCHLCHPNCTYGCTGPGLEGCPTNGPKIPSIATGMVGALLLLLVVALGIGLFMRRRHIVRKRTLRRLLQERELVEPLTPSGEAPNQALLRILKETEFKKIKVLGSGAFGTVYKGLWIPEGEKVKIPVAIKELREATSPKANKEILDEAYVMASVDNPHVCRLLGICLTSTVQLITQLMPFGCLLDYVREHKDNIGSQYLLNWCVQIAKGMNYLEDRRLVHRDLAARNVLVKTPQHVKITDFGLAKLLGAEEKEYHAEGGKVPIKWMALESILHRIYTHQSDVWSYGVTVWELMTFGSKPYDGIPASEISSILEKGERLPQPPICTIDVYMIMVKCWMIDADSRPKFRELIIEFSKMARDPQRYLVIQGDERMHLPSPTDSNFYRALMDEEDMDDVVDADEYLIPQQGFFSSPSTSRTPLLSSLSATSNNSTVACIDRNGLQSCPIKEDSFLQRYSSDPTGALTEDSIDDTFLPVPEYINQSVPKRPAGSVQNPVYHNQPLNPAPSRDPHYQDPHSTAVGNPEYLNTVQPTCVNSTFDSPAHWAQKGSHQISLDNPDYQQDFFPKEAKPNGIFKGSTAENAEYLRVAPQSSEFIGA

O=c1[nH]ccc2cc(F)c(NS(=O)(=O)c3ccc(N4CC[C@@H](O)C4)s3)cc12 [LSN3213128, N-(6-Fluoro-1-oxo-1,2-dihydroisoquinolin-7-yl)-5-[(3R)-3-hydroxypyrrolidin-1-yl]thiophene-2-sulfonamide]
inhibition at 0.2 µM (EGFR; @ 0.2 uM): -11.7%
inhibition at 2 µM (EGFR; @ 2 uM): 2.87%
inhibition at 20 µM (EGFR; @ 20 uM): -0.46%
anti-proliferative effect on supplementation with hypoxanthine (MDA-MB-231met2; 32 μM hypoxanthine): completely abrogated
GI50 (MDA-MB-231met2; Homo sapiens, RPMI media, Alamar Blue): 88 nM
EC50 (A101D (melenoma)): 2.3 nM
EC50 (SNU-16 (gastric); [1]): 2500 nM
EC50 (SNU-16 (gastric); [2]): 2 nM
EC50 (A549 (lung); [1]): 3100 nM
EC50 (A549 (lung); [2]): 10 nM
inhibition at 0.2 µM (SIK; @ 0.2 uM): -1.42%
inhibition at 2 µM (SIK; @ 2 uM): 3.69%
inhibition at 20 µM (SIK; @ 20 uM): 3.12%
inhibition at 0.2 µM (TYK2; @ 0.2 uM): -6.85%
inhibition at 2 µM (TYK2; @ 2 uM): -1.32%
inhibition at 20 µM (TYK2; @ 20 uM): 35.1%
GI50 (cell lines of Table 1; low folate, 12 cell lines): 4.4 ± 4.5 nM
GI50 (cell lines of Table 1; regular RPMI, 11 cell lines): 2400 nM
inhibition at 0.2 µM (EPHA5; @ 0.2 uM): 3.96%
inhibition at 2 µM (EPHA5; @ 2 uM): 9.58%
inhibition at 20 µM (EPHA5; @ 20 uM): 19.4%
inhibition at 0.2 µM (TNK1; @ 0.2 uM): -11.5%
inhibition at 2 µM (TNK1; @ 2 uM): -5.26%
inhibition at 20 µM (TNK1; @ 20 uM): -3.7%
